From ChEMBL document CHEMBL4130627, “Prodrugs of the Phosphoribosylated Forms of Hydroxypyrazinecarboxamide Pseudobase T-705 and Its De-Fluoro Analogue T-1105 as Potent Influenza Virus Inhibitors” (J Med Chem, 2018)
The source made the active and inactive calls. The rule behind the calls is not given here.

What was measured:
[1] = tested on: Influenza B virus; experiment: microbe, parasite or virus in culture; settings: Ned/537/05, MDCK, 72 h
Description: Antiviral activity against Influenza virus B/Ned/537/05 infected in MDCK cells assessed as reduction in viral replication at 3 days post infection by formazan-based MTS assay

[2] = tested on: Influenza A virus; experiment: microbe, parasite or virus in culture; settings: MDCK, 72 h
Description: Antiviral activity against Influenza virus A/X-31 infected in MDCK cells assessed as reduction in viral replication at 3 days post infection by microscopic analysis

[3] = tested on: MDCK; experiment: Prodrug activation in MDCK cells by RP-HPLC-UV analysis; type: cell-based, Canis lupus familiaris; settings: dog
[4] = Cytotoxicity against MDCK cells assessed as reduction in cell viability after 3 days by formazan-based MTS assay; parameters: species or system Canis lupus familiaris; settings: dog
[5] = tested on: MDCK; experiment: Prodrug activation in HGPRT deficient 6-thioguanine-resistant MDCK cells by RP-HPLC-UV analysis; type: cell-based, Canis lupus familiaris; settings: dog
[6] = tested on: Influenza A virus; experiment: microbe, parasite or virus in culture; settings: MDCK, 72 h; remark: listed apart in the source
Description: Antiviral activity against Influenza virus A/X-31 infected in MDCK cells assessed as reduction in viral replication at 3 days post infection by formazan-based MTS assay

[7] = Cytotoxicity against MDCK cells assessed as change in cell morphology after 3 days by microscopic analysis; type: cell-based, Canis lupus familiaris; settings: dog
[8] = Cytotoxicity against HGPRT deficient 6-thioguanine-resistant MDCK cells assessed as change in cell morphology after 3 days by microscopic analysis; type: cell-based, Canis lupus familiaris; settings: dog
[9] = tested on: Influenza B virus; experiment: microbe, parasite or virus in culture; settings: Ned/537/05, MDCK, 72 h; remark: listed apart in the source
Description: Antiviral activity against Influenza virus B/Ned/537/05 infected in MDCK cells assessed as reduction in viral replication at 3 days post infection by microscopic analysis

[10] = tested on: unidentified influenza virus; experiment: Antiviral activity against Influenza virus infected in human A549 cells; type: functional
[11] = tested on: Influenza A virus; type: functional, organism-based; settings: Influenza A virus (A/X-31(H3N2)); MDCK; 6 uM
[12] = tested on: Influenza A virus; type: functional, organism-based; settings: Influenza A virus (A/X-31(H3N2)); MDCK; 25 uM
[13] = Prodrug activation in phosphate buffer at pH 7.3 assessed as half life for T-1105-RDP formation at 450 uM after 24 to 120 hrs by RP-HPLC-UV analysis; type: physicochemical; settings: pH 7.3, 450 µM
[14] = tested on: Influenza A virus; type: functional, organism-based; settings: Influenza A virus (A/X-31(H3N2)); MDCK; 12 to 25 uM
[15] = tested on: MDCK; experiment: Prodrug activation in MDCK cells assessed as T-1105-RDP formation at 500 uM after 2 hrs by RP-HPLC-UV analysis; type: cell-based, Canis lupus familiaris; settings: dog
[16] = target: T1, Liver carboxylesterase (Sus scrofa, UniProt Q29550); experiment: Prodrug activation assessed as pig liver esterase mediated metabolite formation at 450 uM up to 150 mins by RP-HPLC-UV analysis; type: ADME; settings: isolated protein, 2.5 h
T1 sequence (Q29550 whole entry): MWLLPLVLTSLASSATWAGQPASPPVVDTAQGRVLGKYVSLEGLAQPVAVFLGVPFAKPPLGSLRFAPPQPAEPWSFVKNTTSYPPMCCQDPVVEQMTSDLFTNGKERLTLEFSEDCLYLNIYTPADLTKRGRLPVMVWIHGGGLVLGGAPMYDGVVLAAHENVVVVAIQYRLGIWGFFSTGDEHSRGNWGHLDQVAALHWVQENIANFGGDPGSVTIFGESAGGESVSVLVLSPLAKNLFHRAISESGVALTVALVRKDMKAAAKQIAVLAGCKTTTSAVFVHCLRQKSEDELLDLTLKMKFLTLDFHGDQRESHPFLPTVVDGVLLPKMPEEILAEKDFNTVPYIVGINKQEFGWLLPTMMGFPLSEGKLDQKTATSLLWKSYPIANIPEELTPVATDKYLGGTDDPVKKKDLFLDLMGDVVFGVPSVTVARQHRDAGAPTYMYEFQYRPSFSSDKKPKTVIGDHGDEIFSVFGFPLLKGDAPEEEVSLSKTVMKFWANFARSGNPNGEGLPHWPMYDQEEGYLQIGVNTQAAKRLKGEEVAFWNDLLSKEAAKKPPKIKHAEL

[17] = tested on: unidentified influenza virus; experiment: Potency index, ratio of T-1105 EC99 to compound EC99 for Influenza virus infected in human A549 cells; type: functional
[18] = tested on: Influenza A virus; type: functional, organism-based; settings: Influenza A virus (A/X-31(H3N2)); MDCK; 25 uM; remark: listed apart in the source
[19] = tested on: MDCK; experiment: Prodrug activation in MDCK cells assessed as T-1105-RMP formation at 450 uM up to 4 hrs by RP-HPLC-UV analysis; type: cell-based, Canis lupus familiaris; settings: dog
[20] = Inhibition of Influenza virus B/Ned/537/05 RNA dependent RNA polymerase using ApG primer [adenyl (3'-5') guanosine] and [8-3H]GTP after 1 hr by filter-based assay
[21] = target: T1, Liver carboxylesterase; experiment: Drug metabolism assessed as pig liver esterase mediated 4-((((((2R,3S,4R,5R)-5-(3-carbamoyl-2-oxopyrazin-1(2H)-yl)-3,4-dihydroxytetrahydrofuran-2-yl)methoxy)(hydroxy)phosphoryloxy)(hydroxy)phosphoryloxy)methyl)phenyl decanoate formation at 450 uM after 150 mins by RP-HPLC-UV analysis; type: ADME; settings: isolated protein, 2.5 h
[22] = tested on: Influenza A virus; type: functional, organism-based; settings: Influenza A virus (A/X-31(H3N2)); MDCK; 25 uM; remark: listed apart in the source
[23] = tested on: Influenza A virus; type: functional, organism-based; settings: Influenza A virus (A/X-31(H3N2)); MDCK; 12 to 25 uM; remark: listed apart in the source
[24] = tested on: MDCK; experiment: Prodrug activation in MDCK cells assessed as T-1105-RTP formation at 450 uM up to 4 hrs by RP-HPLC-UV analysis; type: cell-based, Canis lupus familiaris; settings: dog
[25] = tested on: A549; experiment: Cytotoxicity against human A549 cells assessed as reduction in cell viability at 100 uM; type: cell-based; settings: a549, 100 µM
[26] = tested on: MDCK; type: cell-based, Canis lupus familiaris; settings: dog, 2 h, 500 µM
[27] = Inhibition of Influenza virus A/X-31 RNA dependent RNA polymerase using ApG primer [adenyl (3'-5') guanosine] and [8-3H]GTP after 1 hr by filter-based assay; parameters: species or system Influenza A virus (A/X-31(H3N2))
[28] = Drug metabolism in MDCK cells assessed as 4-((((((2R,3S,4R,5R)-5-(3-carbamoyl-2-oxopyrazin-1(2H)-yl)-3,4-dihydroxytetrahydrofuran-2-yl)methoxy)(hydroxy)phosphoryloxy)(hydroxy)phosphoryloxy)methyl)phenyl decanoate formation at 450 uM up to 4 hrs by RP-HPLC-UV analysis; type: ADME, cell-based, Canis lupus familiaris; settings: dog
[29] = Drug metabolism in MDCK cells assessed as T-1105-RDP formation at 450 uM up to 4 hrs by RP-HPLC-UV analysis; type: ADME, cell-based, Canis lupus familiaris; settings: dog
[30] = target: Membrane-associated guanylate kinase, WW and PDZ domain-containing protein 1 (Homo sapiens) (UniProt Q96QZ7); experiment: Inhibition of human recombinant guanylate kinase 1 mediated […] conversion at 200 uM preincubated for 10 mins followed by enzyme addition measured up to 60 mins by UV absorbance method relative to control
[31] = tested on: MDCK; experiment: Prodrug activation in HGPRT deficient MDCK cells assessed as T-1105-RMP formation at 465 uM after 1 to 840 mins by RP-HPLC-UV analysis; type: cell-based, Canis lupus familiaris; settings: dog
[32] = target: Membrane-associated guanylate kinase, WW and PDZ domain-containing protein 1 (Homo sapiens) (UniProt Q96QZ7); experiment: Inhibition of human recombinant guanylate kinase 1 mediated […] conversion at 400 uM preincubated for 10 mins followed by enzyme addition measured up to 60 mins by UV absorbance method relative to control
[33] = tested on: MDCK; experiment: Prodrug activation in MDCK cells assessed as T-1105-RMP formation at 465 uM after 1 to 840 mins by RP-HPLC-UV analysis; type: cell-based, Canis lupus familiaris; settings: dog
[34] = tested on: MDCK; experiment: Cytotoxicity against MDCK cells assessed as reduction in cell viability at 37 uM after 3 days by formazan-based MTS assay; parameters: species or system Canis lupus familiaris; settings: dog, 72 h
[35] = target: Membrane-associated guanylate kinase, WW and PDZ domain-containing protein 1 (Homo sapiens) (UniProt Q96QZ7); experiment: Inhibition of human recombinant guanylate kinase 1 mediated […] conversion at 100 uM preincubated for 10 mins followed by enzyme addition measured up to 60 mins by UV absorbance method relative to control
[36] = Drug metabolism in MDCK cells assessed as T-1105-RTP formation at 465 uM after 2 hrs in presence of 5mM ATP by RP-HPLC-UV analysis; type: ADME, cell-based, Canis lupus familiaris; settings: dog
[37] = Drug metabolism in MDCK cells assessed as T-1105-RTP formation at 465 uM in presence of GTP by RP-HPLC-UV analysis; type: ADME, cell-based, Canis lupus familiaris; settings: dog

Chain of Membrane-associated guanylate kinase, WW and PDZ domain-containing protein 1 (Homo sapiens) (Q96QZ7 whole entry, the tested form may be a part): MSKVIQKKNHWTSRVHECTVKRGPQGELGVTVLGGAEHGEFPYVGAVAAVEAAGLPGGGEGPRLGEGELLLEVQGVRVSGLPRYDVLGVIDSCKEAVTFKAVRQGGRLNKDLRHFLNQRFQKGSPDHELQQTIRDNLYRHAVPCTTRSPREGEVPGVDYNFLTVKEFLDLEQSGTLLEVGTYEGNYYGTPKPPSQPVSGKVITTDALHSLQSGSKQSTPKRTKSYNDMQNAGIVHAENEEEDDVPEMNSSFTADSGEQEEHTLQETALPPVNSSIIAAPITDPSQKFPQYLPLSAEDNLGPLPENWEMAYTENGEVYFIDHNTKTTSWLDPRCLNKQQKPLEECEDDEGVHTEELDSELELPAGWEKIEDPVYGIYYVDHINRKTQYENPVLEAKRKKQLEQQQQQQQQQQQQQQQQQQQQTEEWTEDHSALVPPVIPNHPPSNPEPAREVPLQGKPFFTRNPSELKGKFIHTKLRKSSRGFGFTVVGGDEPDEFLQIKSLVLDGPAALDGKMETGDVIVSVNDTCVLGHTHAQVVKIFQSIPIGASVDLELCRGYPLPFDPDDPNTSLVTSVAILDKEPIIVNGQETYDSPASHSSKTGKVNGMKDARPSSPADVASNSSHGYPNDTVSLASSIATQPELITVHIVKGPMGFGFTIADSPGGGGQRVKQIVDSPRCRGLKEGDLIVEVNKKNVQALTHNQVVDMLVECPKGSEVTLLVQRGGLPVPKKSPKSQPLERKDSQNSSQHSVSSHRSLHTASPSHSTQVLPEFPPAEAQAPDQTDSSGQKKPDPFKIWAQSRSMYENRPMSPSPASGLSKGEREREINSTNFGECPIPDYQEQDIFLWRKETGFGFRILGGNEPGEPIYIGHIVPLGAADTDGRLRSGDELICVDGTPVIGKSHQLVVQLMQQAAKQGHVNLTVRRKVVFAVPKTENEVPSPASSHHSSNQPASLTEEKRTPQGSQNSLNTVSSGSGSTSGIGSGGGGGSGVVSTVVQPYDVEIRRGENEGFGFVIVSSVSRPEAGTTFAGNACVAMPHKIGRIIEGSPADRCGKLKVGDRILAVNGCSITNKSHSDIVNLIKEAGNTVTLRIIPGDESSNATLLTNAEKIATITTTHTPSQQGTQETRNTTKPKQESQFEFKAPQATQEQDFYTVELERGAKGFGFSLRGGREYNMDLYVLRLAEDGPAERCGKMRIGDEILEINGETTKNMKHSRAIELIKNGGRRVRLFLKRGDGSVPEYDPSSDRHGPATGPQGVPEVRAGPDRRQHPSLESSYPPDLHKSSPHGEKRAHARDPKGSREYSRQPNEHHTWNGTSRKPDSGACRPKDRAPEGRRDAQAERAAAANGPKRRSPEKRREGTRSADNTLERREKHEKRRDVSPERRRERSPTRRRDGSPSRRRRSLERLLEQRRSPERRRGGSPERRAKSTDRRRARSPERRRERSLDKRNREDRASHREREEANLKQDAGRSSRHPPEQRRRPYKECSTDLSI

With NC(=O)c1nc(Br)cnc1O the EC50 [1] was greater than 250 µM, the EC50 [2] was greater than 250 µM and the Drug metabolism [3] was “Metabolite_Notdetected”. For the same compound, the CC50 at 72 h [4] was greater than 250 µM, the Drug metabolism [5] was “Metabolite_Notdetected” and the EC50 [6] was greater than 250 µM. The MCC at 72 h [7] was greater than 250 µM, the MCC at 72 h [8] was greater than 250 µM and the EC50 [9] was greater than 250 µM.

For CCCCCCCCCC(=O)Oc1ccc(COP(=O)(OCc2ccc(OC(=O)CCCCCCCCC)cc2)OP(=O)(O)OC[C@H]2O[C@@H](n3ccnc(C(N)=O)c3=O)[C@H](O)[C@@H]2O)cc1.CCN(CC)CC, the EC99 [10] was 72 µM, the EC50 [1] was 0.56 µM and the inhibition [11] was “Active”. For the same compound, the inhibition [12] was “Active”, the t1/2 [13] was 30 h and the inhibition [14] was “Active”. For the same compound, the Drug metabolism [15] was “Metabolite_Detected”, the Drug metabolism [16] was “Metabolite_Detected” and the EC50 [2] was 1.3 µM. The Ratio [17] was 2, the inhibition [18] was “inactive” and the Drug metabolism [19] was “Metabolite_Detected”. For the same compound, the CC50 at 72 h [4] was greater than 100 µM, the IC50 [20] was 49 to 126 µM and the EC50 [6] was 1 µM. For the same compound, the MCC at 72 h [7] was 37 µM, the Drug metabolism [21] was “Metabolite_Detected” and the MCC at 72 h [8] was 22 µM. For the same compound, the inhibition [22] was “inactive”, the inhibition [23] was “Active” and the EC50 [9] was 0.81 µM. For the same compound, the Drug metabolism [24] was “Metabolite_Notdetected”, the Activity [25] was “Non-Toxic” and the Drug metabolism [26] was “Metabolite_Detected”. For the same compound, the IC50 [27] was 49 to 126 µM, the Drug metabolism [28] was “Metabolite_Detected” and the Drug metabolism [29] was “Metabolite_Detected”.

For NC(=O)c1nccn([C@@H]2O[C@H](COP(=O)(O)OP(=O)(O)O)[C@@H](O)[C@H]2O)c1=O, the inhibition [30] was 62%, the Drug metabolism [31] was “Metabolite_Detected” and the inhibition [32] was 82%. For the same compound, the Drug metabolism [33] was “Metabolite_Detected”, the Activity [34] was “Non-Toxic” and the inhibition [35] was 37%. The Drug metabolism [36] was “Metabolite_Detected” and the Drug metabolism [37] was “Metabolite_Detected”.
